Measured values from paper PMC9117149, “USP14-regulated allostery of the human proteasome by time-resolved cryo-EM” (Nature, 2022).
Numbered stars: 1 amine (or outer) side, 2 acyl side, 3 side chain; on linkers, the order of the positions; unused ones are H or OH. Peptide text beside a SMILES is read from it. * marks the point of attachment. AMC = Cc1cc(=O)oc2cc(N*)ccc12; Suc = O=C(CCC(=O)[*:2])[*:1]

Experiments:
[1] = target: T1, human 26S proteasome (peptidase activity) (Homo sapiens, UniProt P28074); assay: AMC fluorescence; format: biochemical; conditions: 10 μM substrate, 0.1 mM ATP, 0.5 mM MgCl2, 100 mM KCl, pH 7.5, 37 °C; USP14-free (also with USP14 variants)
T1 construct: gene PSMB5; 20S core particle; with Proteasome subunit beta type-1; Proteasome subunit beta type-2; Proteasome subunit beta type-3; Proteasome subunit beta type-4; Proteasome subunit beta type-6; Proteasome subunit beta type-7
T1 sequence (P28074 60-263): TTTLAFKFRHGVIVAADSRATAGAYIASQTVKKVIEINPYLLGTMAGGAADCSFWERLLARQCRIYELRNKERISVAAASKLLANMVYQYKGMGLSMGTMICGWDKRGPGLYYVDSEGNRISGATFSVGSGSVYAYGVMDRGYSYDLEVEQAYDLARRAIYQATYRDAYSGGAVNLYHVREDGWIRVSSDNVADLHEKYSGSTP

[2] = test system: T2, human 26S proteasome, AAA-ATPase motor (RPT1-RPT6); conditions: 0.5 mM ATP, 5 mM MgCl2, pH 7.5, 37 °C, with 300 nM Ubn-Sic1PY and RPN13; USP14-free
T2 construct: gene PSMC2
T2 sequence (P35998 2-433): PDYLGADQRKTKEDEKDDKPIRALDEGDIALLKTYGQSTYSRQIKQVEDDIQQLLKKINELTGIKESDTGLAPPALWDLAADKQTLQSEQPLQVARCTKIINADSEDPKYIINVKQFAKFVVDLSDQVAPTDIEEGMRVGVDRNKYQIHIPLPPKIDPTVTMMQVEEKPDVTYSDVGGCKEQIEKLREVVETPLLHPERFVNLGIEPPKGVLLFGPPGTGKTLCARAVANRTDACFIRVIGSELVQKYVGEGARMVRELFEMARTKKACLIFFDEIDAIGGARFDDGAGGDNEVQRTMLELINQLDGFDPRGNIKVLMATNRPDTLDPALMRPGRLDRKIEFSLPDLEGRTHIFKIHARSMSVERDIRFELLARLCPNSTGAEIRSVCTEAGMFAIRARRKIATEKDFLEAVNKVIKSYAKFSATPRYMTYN
T2 sequence (P62191 2-440, further chain): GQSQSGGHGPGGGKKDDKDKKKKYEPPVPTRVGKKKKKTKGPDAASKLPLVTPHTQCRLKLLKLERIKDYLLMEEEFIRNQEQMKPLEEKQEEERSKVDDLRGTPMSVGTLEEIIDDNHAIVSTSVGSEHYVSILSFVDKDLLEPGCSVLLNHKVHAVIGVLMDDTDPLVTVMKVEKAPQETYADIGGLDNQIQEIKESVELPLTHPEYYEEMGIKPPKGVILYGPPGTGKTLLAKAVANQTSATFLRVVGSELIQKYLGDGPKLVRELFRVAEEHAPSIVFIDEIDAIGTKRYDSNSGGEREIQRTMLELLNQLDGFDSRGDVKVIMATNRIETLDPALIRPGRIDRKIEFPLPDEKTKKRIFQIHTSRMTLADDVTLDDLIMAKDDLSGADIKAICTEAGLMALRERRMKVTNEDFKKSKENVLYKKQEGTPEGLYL
T2 sequence (P43686 whole entry, further chain): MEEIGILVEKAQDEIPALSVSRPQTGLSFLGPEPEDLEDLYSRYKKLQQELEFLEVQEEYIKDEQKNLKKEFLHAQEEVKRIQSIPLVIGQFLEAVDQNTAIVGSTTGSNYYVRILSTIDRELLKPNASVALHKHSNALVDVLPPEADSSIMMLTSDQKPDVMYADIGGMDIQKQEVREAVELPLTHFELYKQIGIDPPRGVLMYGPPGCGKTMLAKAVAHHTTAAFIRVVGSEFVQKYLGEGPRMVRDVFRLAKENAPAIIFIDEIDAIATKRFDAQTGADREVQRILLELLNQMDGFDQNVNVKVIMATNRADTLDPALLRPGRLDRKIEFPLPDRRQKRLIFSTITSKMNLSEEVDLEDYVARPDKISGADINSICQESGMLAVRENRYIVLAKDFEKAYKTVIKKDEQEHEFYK
T2 sequence (P62333 whole entry, further chain): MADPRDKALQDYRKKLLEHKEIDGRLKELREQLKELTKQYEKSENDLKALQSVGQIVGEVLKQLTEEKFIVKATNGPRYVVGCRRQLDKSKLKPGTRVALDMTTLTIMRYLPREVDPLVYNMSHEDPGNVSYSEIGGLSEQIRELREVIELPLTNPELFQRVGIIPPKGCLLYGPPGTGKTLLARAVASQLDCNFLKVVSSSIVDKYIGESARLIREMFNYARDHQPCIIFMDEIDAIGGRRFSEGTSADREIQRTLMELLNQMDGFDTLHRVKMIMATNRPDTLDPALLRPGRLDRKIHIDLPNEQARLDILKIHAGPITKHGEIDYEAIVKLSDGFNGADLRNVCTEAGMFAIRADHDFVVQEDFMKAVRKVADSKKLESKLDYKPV
T2 sequence (P17980 whole entry, further chain): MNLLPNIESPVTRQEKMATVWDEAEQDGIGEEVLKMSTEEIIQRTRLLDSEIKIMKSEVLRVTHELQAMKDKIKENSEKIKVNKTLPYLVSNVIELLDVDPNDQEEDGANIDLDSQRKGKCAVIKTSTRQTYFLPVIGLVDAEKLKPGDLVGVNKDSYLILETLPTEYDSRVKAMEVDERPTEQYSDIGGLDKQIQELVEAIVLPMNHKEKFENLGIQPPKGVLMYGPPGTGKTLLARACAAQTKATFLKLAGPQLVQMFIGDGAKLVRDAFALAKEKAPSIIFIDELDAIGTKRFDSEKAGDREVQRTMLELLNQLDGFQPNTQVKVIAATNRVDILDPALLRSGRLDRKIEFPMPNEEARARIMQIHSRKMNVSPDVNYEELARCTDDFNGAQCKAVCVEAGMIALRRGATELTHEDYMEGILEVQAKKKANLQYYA
T2 sequence (P62195 2-406, further chain): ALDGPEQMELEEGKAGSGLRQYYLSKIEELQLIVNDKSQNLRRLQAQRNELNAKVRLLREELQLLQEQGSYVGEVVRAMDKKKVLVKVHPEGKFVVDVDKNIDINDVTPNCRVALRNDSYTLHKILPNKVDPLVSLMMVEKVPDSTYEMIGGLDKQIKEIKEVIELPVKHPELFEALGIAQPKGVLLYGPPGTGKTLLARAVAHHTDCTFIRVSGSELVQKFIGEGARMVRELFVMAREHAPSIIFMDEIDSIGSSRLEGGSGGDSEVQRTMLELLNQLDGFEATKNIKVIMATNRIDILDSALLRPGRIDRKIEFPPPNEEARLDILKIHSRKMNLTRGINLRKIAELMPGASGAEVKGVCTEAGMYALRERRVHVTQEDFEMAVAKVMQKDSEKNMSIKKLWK

SMILES | AMC fluorescence [1] | malachite green phosphate release [2]
Cc1cc(=O)oc2cc(NC(=O)[C@H](Cc3ccc(O)cc3)NC(=O)[C@@H](NC(=O)[C@H](CC(C)C)NC(=O)[C@H](CC(C)C)NC(=O)CCC(=O)O)C(C)C)ccc12 [Suc-LLVY-AMC] (Suc-LLVY-{AMC}) | Peptide hydrolysis by the human proteasomes was measured using fluorogenic substrate Suc-LLVY-AMC | –
Nc1ncnc2c1ncn2[C@@H]1O[C@H](COP(=O)(O)OP(=O)(O)OP(=O)(O)O)[C@@H](O)[C@H]1O [ATP] | – | ATPase activity was quantified using malachite green phosphate assay kits
